By IC50 is commonly meant the point on the concentration scale where inhibition reaches its midpoint. The term Ki denotes the dissociation constant of the complex between target and ligand, obtained from inhibition or displacement. What is called Tmax is the time from dosing to the highest level. Usually Vd stands for the apparent volume that relates the amount in the body to the concentration in plasma or blood. As usually defined, the AUC is the area under the concentration-time curve, a measure of exposure. What is called MRT is a mean duration of stay, worked out from the concentration-time curve. The AUC(0-t) is exposure summed from dosing to a finite time, without extrapolation to infinity. Broadly, the Cmax is the highest concentration seen after dosing.

The record followed here is ChEMBL document CHEMBL5131409, “Synthesis and characterization of chiral 6-azaspiro[2.5]octanes as potent and selective antagonists of the M4 muscarinic acetylcholine receptor” (Bioorg Med Chem Lett, 2022).

Series [1] concerns the target T1, Muscarinic acetylcholine receptor M1 (Rattus norvegicus, UniProt P08482).
T1 sequence (P08482 whole entry): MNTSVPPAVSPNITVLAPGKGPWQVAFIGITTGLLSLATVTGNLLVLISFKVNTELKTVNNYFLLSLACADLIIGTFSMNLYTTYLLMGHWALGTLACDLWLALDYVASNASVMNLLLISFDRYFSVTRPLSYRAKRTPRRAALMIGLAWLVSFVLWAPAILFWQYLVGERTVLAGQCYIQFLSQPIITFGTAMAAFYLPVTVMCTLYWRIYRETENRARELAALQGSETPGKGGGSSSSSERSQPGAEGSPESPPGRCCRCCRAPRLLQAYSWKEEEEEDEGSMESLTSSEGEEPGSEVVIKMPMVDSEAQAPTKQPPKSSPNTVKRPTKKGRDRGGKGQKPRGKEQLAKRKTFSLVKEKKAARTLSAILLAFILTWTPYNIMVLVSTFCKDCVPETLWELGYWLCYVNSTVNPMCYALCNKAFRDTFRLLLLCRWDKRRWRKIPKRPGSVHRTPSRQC
The experiment in a line: Inhibition of rat muscarinic acetylcholine M1 receptor expressed in CHO cells co-expressing Gqi5 preincubated with compound followed by acetylcholine addition at EC80 concentration by calcium mobilization assay. The class given is functional, cell-based. (In general: Calcium flux is commonly read through the fluorescence of an indicator in the cells.)

The target of series [2] is T2, Muscarinic acetylcholine receptor M4 (Homo sapiens, UniProt P08173).
T2 sequence (P08173 whole entry): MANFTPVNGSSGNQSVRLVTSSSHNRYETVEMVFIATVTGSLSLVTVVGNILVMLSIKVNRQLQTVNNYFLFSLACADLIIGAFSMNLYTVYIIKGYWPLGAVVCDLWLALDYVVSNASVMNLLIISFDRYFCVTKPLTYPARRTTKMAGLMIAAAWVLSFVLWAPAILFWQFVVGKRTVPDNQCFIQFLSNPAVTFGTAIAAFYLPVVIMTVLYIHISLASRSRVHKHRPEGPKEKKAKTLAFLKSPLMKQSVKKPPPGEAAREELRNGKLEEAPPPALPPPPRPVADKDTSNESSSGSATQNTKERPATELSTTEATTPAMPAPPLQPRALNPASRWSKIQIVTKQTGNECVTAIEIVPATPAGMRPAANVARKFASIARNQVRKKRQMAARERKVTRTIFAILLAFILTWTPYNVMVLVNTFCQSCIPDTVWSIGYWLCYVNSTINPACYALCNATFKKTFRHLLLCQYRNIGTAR
Description: Displacement of [3H]-NMS from human muscarinic acetylcholine M4 receptor expressed in CHO cell membrane by competitive binding assay. It counts as cell membranes.

A short description of series [3]: Tmax in mouse brain at 3 mg/kg, ip. It counts as ADME, organism-based.
Series [4] addresses T3, Muscarinic acetylcholine receptor M2 (Rattus norvegicus, UniProt P10980).
T3 sequence (P10980 whole entry): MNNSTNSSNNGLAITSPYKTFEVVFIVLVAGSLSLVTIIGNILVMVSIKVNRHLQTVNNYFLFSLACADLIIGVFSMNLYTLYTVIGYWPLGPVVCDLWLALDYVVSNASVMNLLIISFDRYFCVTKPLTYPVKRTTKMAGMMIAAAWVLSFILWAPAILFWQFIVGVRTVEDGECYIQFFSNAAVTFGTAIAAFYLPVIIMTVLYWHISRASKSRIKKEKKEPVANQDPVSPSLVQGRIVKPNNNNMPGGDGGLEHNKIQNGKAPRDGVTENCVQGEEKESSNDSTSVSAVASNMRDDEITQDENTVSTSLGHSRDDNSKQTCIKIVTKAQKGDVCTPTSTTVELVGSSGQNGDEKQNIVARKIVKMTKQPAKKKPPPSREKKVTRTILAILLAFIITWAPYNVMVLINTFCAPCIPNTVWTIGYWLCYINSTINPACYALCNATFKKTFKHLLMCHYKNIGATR
The experiment in a line: Inhibition of rat muscarinic acetylcholine M2 receptor expressed in CHO cells co-expressing Gqi5 preincubated with compound followed by acetylcholine addition at EC80 concentration by calcium mobilization assay. It counts as functional, cell-based.

The nature of series [5]: Ratio of AUC (0.25 to last) in mouse brain to plasma at 3 mg/kg, ip. The class given is ADME, organism-based. Conditions: read-out: Ratio AUC.
Series [6] is described as follows: Unbound Cmax in rat plasma at 3 mg/kg, ip. It counts as ADME, organism-based. Conditions: in vivo.
Series [7] deals with Cytochrome P450 3A4 (Homo sapiens, UniProt P08684). The experiment in a line: Inhibition of CYP3A4 in human liver microsomes using cocktail of isoform-specific probe substrate. The class given is ADME, Microsome. A general note: Liver microsomes are vesicles of endoplasmic reticulum, rich in cytochrome P450 enzymes.
A short description of series [8]: Volume of distribution in rat at 3 mg/kg, iv. It counts as ADME, organism-based. Conditions: in vivo.
The nature of series [9]: Intrinsic clearance in rat liver microsomes. It counts as ADME, Microsome. As to conditions: read-out: CLH.
Series [10] is described as follows: AUC (0.25 to last) in rat plasma at 3 mg/kg, ip. It counts as ADME, organism-based. On the set-up: dose 3 mg/kg, route ip.
A short description of series [11]: Elimination half life in rat at 3 mg/kg, iv. It counts as ADME, organism-based. As to conditions: in vivo, read-out: beta t1/2 (converted).
Series [12] can be described thus: AUC (0.25 to last) in mouse brain at 3 mg/kg, ip. Conditions: in vivo. It counts as ADME, organism-based.
Series [13] in a line: Tmax in mouse plasma at 3 mg/kg, ip. The class given is ADME, organism-based.
Series [14] in a line: Ratio of AUC (0.25 to last) in rat brain to plasma at 3 mg/kg, ip. It counts as ADME, organism-based. As to conditions: read-out: Ratio AUC.
Series [15] deals with T4, Muscarinic acetylcholine receptor M4 (Homo sapiens) (UniProt P08173).
T4 sequence (whole entry): T2 sequence (P08173 whole entry)
Description: Antagonist activity at human muscarinic acetylcholine M4 receptor expressed in CHO cells co-expressing Gqi5 assessed as minimal acetylcholine response by calcium mobilization assay relative to control. Also noted: scale not given: the % may be the effect or the level left. The class given is functional, cell-based. Conditions: filed as antagonist.

Series [16] deals with T5, Muscarinic acetylcholine receptor M2 (Homo sapiens, UniProt P08172).
T5 sequence (P08172 whole entry): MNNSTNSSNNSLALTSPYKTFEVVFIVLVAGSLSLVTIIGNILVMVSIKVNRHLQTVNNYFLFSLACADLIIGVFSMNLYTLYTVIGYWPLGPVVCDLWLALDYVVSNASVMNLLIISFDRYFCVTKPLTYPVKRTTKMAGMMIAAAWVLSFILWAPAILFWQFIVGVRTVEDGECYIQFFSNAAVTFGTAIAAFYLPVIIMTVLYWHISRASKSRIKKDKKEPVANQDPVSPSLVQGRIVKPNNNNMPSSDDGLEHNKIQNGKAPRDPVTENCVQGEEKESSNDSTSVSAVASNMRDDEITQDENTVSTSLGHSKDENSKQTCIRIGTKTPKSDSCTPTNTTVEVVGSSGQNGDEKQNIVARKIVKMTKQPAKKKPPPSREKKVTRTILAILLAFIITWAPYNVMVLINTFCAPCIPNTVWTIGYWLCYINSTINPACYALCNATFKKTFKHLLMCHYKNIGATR
The experiment in a line: Inhibition of human muscarinic acetylcholine M2 receptor expressed in CHO cells co-expressing Gqi5 in the presence of acetylcholine at EC80 concentration by calcium mobilization assay. The class given is functional, cell-based.

Series [17] in a line: MRT in rat at 3 mg/kg, iv. The class given is ADME, organism-based. As to conditions: in vivo.
Series [18] in a line: AUC (0 to last) in rat at 3 mg/kg, iv. It counts as ADME, organism-based. Also noted: time 0 - last, dose 3 mg/kg, route iv. Conditions: in vivo.
The nature of series [19]: Cmax in rat plasma at 3 mg/kg, ip. The class given is ADME, organism-based. Also noted: dose 3 mg/kg, route ip.
Series [20] can be described thus: AUC (0.25 to last) in mouse plasma at 3 mg/kg, ip. It counts as ADME, organism-based. On the set-up: dose 3 mg/kg, route ip.

SMILES strings stand for the structures. Bounds are passed on as bounds.

Sequence of Cytochrome P450 3A4 (P08684 whole entry, canonical isoform): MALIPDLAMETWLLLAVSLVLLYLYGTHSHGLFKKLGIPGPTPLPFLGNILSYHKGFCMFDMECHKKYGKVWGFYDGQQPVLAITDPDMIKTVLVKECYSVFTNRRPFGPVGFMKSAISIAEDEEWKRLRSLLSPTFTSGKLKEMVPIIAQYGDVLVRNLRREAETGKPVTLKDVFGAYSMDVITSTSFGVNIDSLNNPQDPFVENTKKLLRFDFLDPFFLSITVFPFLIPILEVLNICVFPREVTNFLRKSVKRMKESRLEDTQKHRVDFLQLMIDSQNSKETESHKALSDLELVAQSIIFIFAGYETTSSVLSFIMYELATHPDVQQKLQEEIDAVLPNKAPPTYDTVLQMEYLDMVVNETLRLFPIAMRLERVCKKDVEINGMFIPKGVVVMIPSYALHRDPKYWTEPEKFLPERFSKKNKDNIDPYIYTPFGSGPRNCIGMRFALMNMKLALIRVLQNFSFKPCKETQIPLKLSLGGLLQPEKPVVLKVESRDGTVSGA

For the molecule `CC(=O)Nc1ccc(-c2ccc(NC[C@@H]3CC34CCN(CC3CCOCC3)CC4)nn2)cc1`, the IC50 in [1] was over 10 µM; in [4], over 10 µM; in series [7] it was over 30 µM; in [16], over 10 µM. This molecule showed a Ki in series [2] of 0.0433 µM. Also, the values for the Tmax in [3] and in series [13] were 2 h and 0.5 h, respectively. Further, the Kp was determined as 0.38 in series [5] and 0.23 in [14]. Moreover, the fCmax in [6] amounted to 1656 ng/mL. Also, the Vd in [8] is 147 L/kg. Also, the CLint scaled in series [9] was 6.2 mL/min/kg. The exposure (AUC) in [10] came out at 9550 ng·h/mL; in series [20] it was 10500 ng·h/mL. Further, the half-life in series [11] is 8.6 h. The same molecule had an AUClast in series [12] of 3980 ng·h/g. The Activity in [15] worked out at 3.2%. Moreover, the mean residence time (MRT) in series [17] worked out at 9.33 h. This molecule had an AUC(0-t) in series [18] of 181 ng·h/mL. Further, the highest level in [19] (Cmax) was 6700 ng/mL.
